# Reference: patent US11000033B2, “Ketone or oxime compound, and herbicide” (NISSAN CHEMICAL CORPORATION, priority 2014, dated 2021)
# What was measured:
# Type in all cases: in vivo
# Avena fatua = assay: Test Example 5: herbicidal effect by foliage application, plastic box (symbol I); settings: 320 g/ha, 3 weeks after application
# Procedure, shortened: (§1)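 Visual herbicidal score, taken three weeks post-application, of seedlings sprayed on the foliage with water-diluted emulsion at a predetermined amount; plants were 14 days old, greenhouse-raised at 25° C. to 30° C.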
# Alopecurus myosuroides = assay: Test Example 5: herbicidal effect by foliage application, plastic box (symbol J); settings: 320 g/ha, 3 weeks after application
# Procedure, shortened: as §1
# beet [1] = assay: Test Example 4: effect on crop by soil treatment (symbol f); settings: 320 g/ha
# Procedure, shortened: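 Greenhouse culture at 25° C. to 30° C. followed sowing of seed in spots on sterilized diluvial soil with a soil cover close to 1.5 cm thick.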
# [2] = test system: Echinochloa oryzacola Vasing.; assay: Test Example 1: herbicidal activity, application before weed generation in submerged conditions (symbol A); settings: application herbicide amount 320 g/ha
# Procedure, shortened: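 Weeds are sown into submerged alluvial soil alongside transplanted 2.5-leaf rice, and the compound, as an emulsion diluted to a set rate, is applied onto the water before emergence. Rating on the 0–5 herbicidal-ratio scale follows 3 weeks of greenhouse growth at 25–30 °C.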
# Monochoria vaginalis = assay: Test Example 2: herbicidal activity, application during weed generation in submerged conditions (symbol C); settings: Table 23; application herbicide amount 320 g/ha; grade 0-5 by criteria of Test Example 1
# Procedure, shortened: (§2)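 Treatment timing was the one- to two-leaf stage, with diluted emulsifiable compound dropped onto the paddy water (depth 4 cm) over alluvial soil. All three species grew from a mixed sowing in a 25° C. to 30° C. greenhouse. Injury was judged by eye 3 weeks on.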
# Leptochloa chinensis = assay: Test Example 3: herbicidal effect by foliage application, Wagner pot (symbol D); settings: application herbicide amount 320 g/ha
# Procedure, shortened: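 The compound, formulated as an emulsion and diluted with water to a predetermined rate, is applied uniformly to leaves of two-week-old seedlings growing in submerged alluvial soil at 25–30 °C. Rice is included. Each plant is assessed 3 weeks later using defined criteria.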
# Digitaria ciliaris = assay: Test Example 5: herbicidal effect by foliage application, plastic box (symbol F); settings: 320 g/ha, 3 weeks after application
# Procedure, shortened: as §1
# Scirpus juncoides = assay: Test Example 2: herbicidal activity, application during weed generation in submerged conditions (symbol B); settings: Table 23; application herbicide amount 320 g/ha; grade 0-5 by criteria of Test Example 1
# Procedure, shortened: as §2
# Setaria viridis = assay: Test Example 4: herbicidal effect by soil treatment (symbol G); settings: 320 g/ha
# Procedure, shortened: (§3)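 Seeds were sown in sterilized diluvial soil, covered with about 1.5 cm of soil, and the soil surface was sprayed with a water-diluted emulsion of the compound at a predetermined rate. Plants grew in a greenhouse at 25° C. to 30° C.; effects were scored visually 3 weeks after application.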
# rapeseed = assay: Test Example 5: effect on crop by foliage application, plastic box (symbol g); settings: 320 g/ha, 3 weeks after application
# Procedure, shortened: (§4)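 Plants were raised from seed in a greenhouse (25° C. to 30° C.) after sowing in a plastic box of sterilized diluvial soil.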
# Veronica persica = assay: Test Example 4: herbicidal effect by soil treatment (symbol R); settings: 320 g/ha
# Procedure, shortened: as §3
# beet [3] = assay: Test Example 5: effect on crop by foliage application, plastic box (symbol f); settings: 320 g/ha, 3 weeks after application
# Procedure, shortened: as §4
SMILES,"I: Avena fatua, herbicidal effect (criteria 0-5) (Avena fatua)","J: Alopecurus myosuroides, herbicidal effect (criteria 0-5) (Alopecurus myosuroides)","f: beet, effect grade on crop (beet [1])","Herbicidal effect grade, A: Echinochloa oryzacola Vasing. [2]","Herbicidal effect grade, C: Monochoria vaginalis (Monochoria vaginalis)","herbicidal effect on D (Leptochloa chinensis), grade 0-5 (Leptochloa chinensis)","F: Digitaria ciliaris, herbicidal effect (criteria 0-5) (Digitaria ciliaris)","Herbicidal effect grade, B: Scirpus juncoides (Scirpus juncoides)","G: Setaria viridis, herbicidal effect grade (Setaria viridis)","g: rapeseed, effect on crop (criteria 0-5) (rapeseed)","R: Veronica persica, herbicidal effect grade (Veronica persica)","f: beet, effect on crop (criteria 0-5) (beet [3])"
CON=C(C)CC1CC(OC(=O)C2=C(Br)CCC2)=C(c2c(C)cc(C)cc2C)C1=O (stereo not drawn) [1-089],5 (Herbicidal ratio of 90% or more (almost completely withered)),5 (Herbicidal ratio of 90% or more (almost completely withered)),0 (Herbicidal ratio of 5% or lower (almost no effect)),5 (Herbicidal ratio of 90% or more (almost completely withered)),3 (Herbicidal ratio of 40% or higher and lower than 70%),5 (Herbicidal ratio of 90% or more (almost completely withered)),5 (Herbicidal ratio of 90% or more (almost completely withered)),4 (Herbicidal ratio of 70% or higher and lower than 90%),5 (Herbicidal ratio of 90% or more (almost completely withered)),4 (Herbicidal ratio of 70% or higher and lower than 90%),0 (Herbicidal ratio of 5% or lower (almost no effect)),0 (Herbicidal ratio of 5% or lower (almost no effect))
CCCC=CC(=O)OC1=C(c2c(C)cc(C)cc2C)C(=O)C(CC(C)=NOC)C1 (stereo not drawn) [1-090],5 (Herbicidal ratio of 90% or more (almost completely withered)),5 (Herbicidal ratio of 90% or more (almost completely withered)),0 (Herbicidal ratio of 5% or lower (almost no effect)),5 (Herbicidal ratio of 90% or more (almost completely withered)),3 (Herbicidal ratio of 40% or higher and lower than 70%),5 (Herbicidal ratio of 90% or more (almost completely withered)),5 (Herbicidal ratio of 90% or more (almost completely withered)),5 (Herbicidal ratio of 90% or more (almost completely withered)),5 (Herbicidal ratio of 90% or more (almost completely withered)),4 (Herbicidal ratio of 70% or higher and lower than 90%),0 (Herbicidal ratio of 5% or lower (almost no effect)),0 (Herbicidal ratio of 5% or lower (almost no effect))
CON=C(C)CC1CC(OC(=O)C=Cc2ccco2)=C(c2c(C)cc(C)cc2C)C1=O (stereo not drawn) [1-091],5 (Herbicidal ratio of 90% or more (almost completely withered)),5 (Herbicidal ratio of 90% or more (almost completely withered)),0 (Herbicidal ratio of 5% or lower (almost no effect)),5 (Herbicidal ratio of 90% or more (almost completely withered)),0 (Herbicidal ratio of 5% or lower (almost no effect)),5 (Herbicidal ratio of 90% or more (almost completely withered)),5 (Herbicidal ratio of 90% or more (almost completely withered)),3 (Herbicidal ratio of 40% or higher and lower than 70%),5 (Herbicidal ratio of 90% or more (almost completely withered)),4 (Herbicidal ratio of 70% or higher and lower than 90%),0 (Herbicidal ratio of 5% or lower (almost no effect)),0 (Herbicidal ratio of 5% or lower (almost no effect))
